{"source": "patent US20230365533A1", "about": "“BICYCLOHEPTANE PYRROLIDINE OREXIN RECEPTOR AGONISTS” (MERCK SHARP & DOHME CORP., priority 2021, published 2023)", "data": [{"target": "T1, human OX2R (Homo sapiens, UniProt O43614)", "T1 construct": "expressed in transfected cells; host or cells: CHO (Chinese hamster ovary) cells, grown under G418 selection", "T1 sequence (O43614 1-444)": "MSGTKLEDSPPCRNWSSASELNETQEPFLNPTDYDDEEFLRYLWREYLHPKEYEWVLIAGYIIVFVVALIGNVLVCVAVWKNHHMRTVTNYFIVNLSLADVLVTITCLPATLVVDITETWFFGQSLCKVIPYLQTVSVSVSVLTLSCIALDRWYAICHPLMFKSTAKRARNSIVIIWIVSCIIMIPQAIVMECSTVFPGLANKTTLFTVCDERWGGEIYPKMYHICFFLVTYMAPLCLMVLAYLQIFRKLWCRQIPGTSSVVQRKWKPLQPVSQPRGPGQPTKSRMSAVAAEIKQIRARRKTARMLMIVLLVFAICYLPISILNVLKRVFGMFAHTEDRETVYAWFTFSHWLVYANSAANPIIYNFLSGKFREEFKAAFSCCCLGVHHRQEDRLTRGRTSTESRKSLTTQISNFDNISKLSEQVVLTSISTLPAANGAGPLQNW", "assay": "IPOne (IP-1) orexin receptor agonist assay in CHO cells expressing human OX2R", "assay_type": "cell-based", "conditions": "CHO, percent of mean max effect of a reference compound at 1 uM with 100% activity vs Orexin A, human OX2R", "text": "(§1) The utility of the compounds in accordance with the present invention as orexin receptor OX1R and/or OX2R agonists may be readily determined without undue experimentation by methodology well known in the art. Both the OX1R and/or OX2R G-coupled protein receptors (GPCRs) couple through the Gaq signaling pathway, which ultimately promotes calcium mobilization via inositol triphosphate (IP3) production. The half-life of IP-3 is relatively short, being rapidly metabolized to inositol monophosphate (IP-1), which can be readily detected using a commercially available assay kit (IP-One; Cisbio; cat #621PAPEC) coupled with a cell line expressing the target receptor(s) of interest. The utility of the compounds in accordance with the present invention as orexin receptor OX1R and/or OX2R agonists may be determined utilizing this assay.\n(§2) In a typical experiment, the OX1 and OX2 receptor agonist activity is determined in accordance with the following general experimental method. Chinese hamster ovary (CHO) cells expressing human OX1R and/or the human OX2R were grown in Iscove's modified DMEM containing glutaMAX™, 1% G418, 100 U/mL penicillin, 100 μg/mL streptomycin and 10% heat-inactivated qualified fetal bovine serum (FBS). The OX2R cells were seeded at 10,000 cells/well/50 μL and the OX1R cells were seeded at 20,000 cells/well/50 μL into 384-well white tissue culture plates (Greiner; cat #781080). All cell/media reagents were from GIBCO-Invitrogen Corp. The seeded cell plate(s) were incubated at 37° C. with 5% CO2 and 85% humidity for 20-24 hours. On the day of the assay, assay-ready compound plates were prepared using an acoustic liquid handler (ECHO; Labcyte), which dispensed sufficient volume of test compound stock (10 mM in DMSO) or 100% DMSO to prepare 10 point, ½-log dilutions in a final volume of 202.5 nL/well in all test wells of a 384-well diamond plate (Labcyte). Following completion of assay-ready plates, importantly, the next three steps were performed with minimal delay: 1) 20 μl of 1×stimulation buffer was added to the compound plate using a Multidrop Combi (small cassette, Thermo Fisher Scientific cat #24073290); 2) culture medium was removed from the cell plate using the Bluewasher plate washer (gentle spin; BlueCatBio); 3) 14 μl of compound/stimulation buffer mixture was added to the cell plate using a Bravo liquid handler (Agilent) prior to incubating cell plates at 37° C. with 5% CO2 and 85% humidity for 1 or 2 hours (OX1R and OX2R, respectively). During this incubation, IP-one detection reagents were prepared (38:1:1 lysis buffer:D2:AB-cryptate reagents). Six μL of mixed detection reagents were added to the cell plate using a Multidrop Combi (small cassette, Thermo Fisher Scientific cat #24073290) and incubated 60 minutes at room temperature in the dark. Fluorescence signal was detected using an Envision plate reader (Perkin Elmer) [LANCE/DELFIA Dual Enh (Em: APC 665; Ex: Cy5 620)].\n(§3) For each compound, data were fit to a four parameter logistic fit (ActivityBase software) and the EC50 was reported as the inflection point of the resulting curve. Percent effect for each test compound was determined as the percentage of sample raw value/mean max effect, where the mean max effect was derived from the mean raw value of 32 control wells per assay plate (using Orexin A (cat #003-30) at 1 μM for human OX1R and a reference compound at 1 uM with 100% activity previously established by comparison to Orexin A for human OX2R). The intrinsic orexin receptor agonist activity of a compound which may be used in the present invention may be determined by these assays.", "units": {"Emax": "%"}, "values": [{"smiles": "COC(=O)N1CC[C@H](NS(C)(=O)=O)[C@@H]1COC1CCC2(c3ncccn3)CC2C1", "note": "(mixture of isomers) [Example 21, methyl (2R,3S)-3-(methylsulfonamido)-2-(((6-(pyrimidin-2-yl)bicyclo[4.1.0]heptan-3-yl)oxy)methyl)pyrrolidine-1-carboxylate]", "Emax": 94.6}]}, {"target": "T1, human OX2R", "assay": "IPOne (IP-1) orexin receptor agonist assay in CHO cells expressing human OX2R", "assay_type": "cell-based", "conditions": "IPOne assay, CHO cells expressing human OX2R, 2 hours incubation; read-out: hoX2R_IP IC50", "text": "as §1, §2, §3", "units": {"IC50": "nM"}, "values": [{"smiles": "COC(=O)N1[C@@H]2CCC[C@@H]2[C@H](NS(=O)(=O)C2CC2)[C@@H]1COC1CCC2(c3ncc(F)cn3)CC2C1", "note": "(stereo partly drawn) [Example 128, methyl (2R,3S,3aS,6aR)-3-(cyclopropanesulfonamido)-2-(((6-(5-fluoropyrimidin-2-yl)bicyclo[4.1.0]heptan-3-yl)oxy)methyl)hexahydrocyclopenta[b]pyrrole-1(2H)-carboxylate]", "IC50": 1.8}, {"smiles": "CC(C)OC(=O)N1[C@H](C)C[C@H](NS(=O)(=O)N(C)C)[C@@H]1COC1CCC2(c3ncccn3)CC2C1", "note": "(stereo partly drawn) [Example 174, isopropyl (2R,3S,5R)-3-((N,N-dimethylsulfamoyl)amino)-5-methyl-2-(((6-(pyrimidin-2-yl)bicyclo[4.1.0]heptan-3-yl)oxy)methyl)pyrrolidine-1-carboxylate]", "IC50": 7.5}, {"smiles": "CC(C)OC(=O)N1CCC[C@H](NS(=O)(=O)C2CC2)[C@@H]1COC1CCC2(c3ncc(F)cn3)CC2C1", "note": "(stereo partly drawn) [Example 122, isopropyl (2R,3S)-3-(cyclopropanesulfonamido)-2-(((6-(5-fluoropyrimidin-2-yl)bicyclo[4.1.0]heptan-3-yl)oxy)methyl)piperidine-1-carboxylate]", "IC50": 6.1}, {"smiles": "COC(=O)N1[C@H](C)C[C@H](NS(=O)(=O)N(C)C)[C@@H]1COC1CCC2(c3ncccn3)C(C1)C2(F)F", "note": "(stereo partly drawn) [Example 7, methyl (2R,3S,5R)-2-(((7,7-difluoro-6-(pyrimidin-2-yl)bicyclo[4.1.0]heptan-3-yl)oxy)methyl)-3-((N,N-dimethylsulfamoyl)amino)-5-methylpyrrolidine-1-carboxylate]", "IC50": 9390}, {"smiles": "C[C@@H]1C[C@H](NS(C)(=O)=O)[C@H](CO[C@H]2CC[C@@]3(c4ncc(F)cn4)C[C@H]3C2)N1C(=O)OCC1CC(F)C1", "note": "(stereo partly drawn) [Example 49, (3-fluorocyclobutyl)methyl (2R,3S,5R)-2-((((1S,3S,6R)-6-(5-fluoropyrimidin-2-yl)bicyclo[4.1.0]heptan-3-yl)oxy)methyl)-5-methyl-3-(methylsulfonamido)pyrrolidine-1-carboxylate]", "IC50": 1.1}, {"smiles": "COC(=O)N1[C@H](C)C[C@H](NS(=O)(=O)N(C)C)[C@@H]1COC1CCC2(c3cccc(F)c3)CC2C1", "note": "(mixture of isomers) [Example 3, methyl (2R,3S,5R)-3-((N,N-dimethylsulfamoyl)amino)-2-(((6-(3-fluorophenyl)bicyclo[4.1.0]heptan-3-yl)oxy)methyl)-5-methylpyrrolidine-1-carboxylate]", "IC50": 187}, {"smiles": "C[C@@H]1C[C@H](NS(C)(=O)=O)[C@H](CO[C@H]2CC[C@@]3(c4ncc(F)cn4)C[C@H]3C2)N1C(=O)OCC(F)F", "note": "[Example 66, 2,2-difluoroethyl (2R,3S,5R)-2-((((1S,3S,6R)-6-(5-fluoropyrimidin-2-yl)bicyclo[4.1.0]heptan-3-yl)oxy)methyl)-5-methyl-3-(methylsulfonamido)pyrrolidine-1-carboxylate]", "IC50": 0.6}, {"smiles": "CC(OC(=O)N1[C@H](C)C[C@H](NS(C)(=O)=O)[C@@H]1CO[C@H]1CC[C@@]2(c3ncc(F)cn3)C[C@H]2C1)C(F)F", "note": "(stereo partly drawn) [Example 63, 1,1-Difluoropropan-2-yl (2R,3S,5R)-2-((((1S,3S,6R)-6-(5-fluoropyrimidin-2-yl)bicyclo[4.1.0]heptan-3-yl)oxy)methyl)-5-methyl-3-(methylsulfonamido)pyrrolidine-1-carboxylate]", "IC50": 0.77}, {"smiles": "C[C@@H]1C[C@H](NS(C)(=O)=O)[C@H](CO[C@H]2CC[C@@]3(c4ncc(F)cn4)C[C@H]3C2)N1C(=O)OCC1CC1(F)F", "note": "(stereo partly drawn) [Example 59, (2,2-difluorocyclopropyl)methyl (2R,3S,5R)-2-((((1S,3S,6R)-6-(5-fluoropyrimidin-2-yl)bicyclo[4.1.0]heptan-3-yl)oxy)methyl)-5-methyl-3-(methylsulfonamido)pyrrolidine-1-carboxylate]", "IC50": 0.71}, {"smiles": "COC(=O)N1CC[C@H](NS(C)(=O)=O)[C@@H]1COC1CCC2(c3ncccn3)CC2C1", "note": "(mixture of isomers) [Example 21, methyl (2R,3S)-3-(methylsulfonamido)-2-(((6-(pyrimidin-2-yl)bicyclo[4.1.0]heptan-3-yl)oxy)methyl)pyrrolidine-1-carboxylate]", "IC50": 1620}, {"smiles": "COC(=O)N1[C@H](C)C[C@H](NS(=O)(=O)Cc2ccccc2)[C@@H]1CO[C@H]1CC[C@@]2(c3ncc(F)cn3)C[C@H]2C1", "note": "[Example 34, methyl (2R,3S,5R)-2-((((1S,3S,6R)-6-(5-fluoropyrimidin-2-yl)bicyclo[4.1.0]heptan-3-yl)oxy)methyl)-5-methyl-3-((phenylmethyl)sulfonamido)pyrrolidine-1-carboxylate]", "IC50": 34.4}, {"smiles": "CCS(=O)(=O)N[C@H]1C[C@@H](C)N(C(=O)OC)[C@H]1CO[C@@H]1CC[C@]2(c3ncc(F)cn3)C[C@@H]2C1", "note": "[Example 47, methyl (2R,3S,5R)-3-(ethylsulfonamido)-2-((((1R,3R,6S)-6-(5-fluoropyrimidin-2-yl)bicyclo[4.1.0]heptan-3-yl)oxy)methyl)-5-methylpyrrolidine-1-carboxylate]", "IC50": 13.8}, {"smiles": "COC(=O)N1[C@H](C)C[C@H](NS(=O)(=O)C2CC2)[C@@H]1CO[C@H]1CC[C@@]2(c3ncc(F)cn3)C[C@H]2C1", "note": "[Example 42, methyl (2R,3S,5R)-3-(cyclopropanesulfonamido)-2-((((1S,3S,6R)-6-(5-fluoropyrimidin-2-yl)bicyclo[4.1.0]heptan-3-yl)oxy)methyl)-5-methylpyrrolidine-1-carboxylate]", "IC50": 3}, {"smiles": "COC(=O)N1[C@H](C)C[C@H](NS(=O)(=O)C(C)C)[C@@H]1CO[C@H]1CC[C@@]2(c3ncc(F)cn3)C[C@H]2C1", "note": "[Example 38, methyl (2R,3S,5R)-2-((((1S,3S,6R)-6-(5-fluoropyrimidin-2-yl)bicyclo[4.1.0]heptan-3-yl)oxy)methyl)-5-methyl-3-((1-methylethyl)sulfonamido)pyrrolidine-1-carboxylate]", "IC50": 0.9}, {"smiles": "COC(=O)N1[C@H](C)C[C@H](NS(=O)(=O)N(C)C)[C@@H]1COC1CCC2(c3cnccn3)CC2C1", "note": "(stereo partly drawn) [Example 13, methyl (2R,3S,5R)-3-((N,N-dimethylsulfamoyl)amino)-5-methyl-2-(((6-(pyrazin-2-yl)bicyclo[4.1.0]heptan-3-yl)oxy)methyl)pyrrolidine-1-carboxylate]", "IC50": 461}, {"smiles": "COC(=O)N1[C@H](C)C[C@H](NS(C)(=O)=O)[C@@H]1COC1CCC2(c3ncc(F)c(C4CC4)n3)CC2C1", "note": "(stereo partly drawn) [Example 74, methyl (2R,3S,5R)-2-(((6-(4-cyclopropyl-5-fluoropyrimidin-2-yl)bicyclo[4.1.0]heptan-3-yl)oxy)methyl)-5-methyl-3-(methylsulfonamido)pyrrolidine-1-carboxylate]", "IC50": 299}, {"smiles": "C[C@@H]1C[C@H](NS(C)(=O)=O)[C@H](CO[C@H]2CC[C@@]3(c4ncc(F)cn4)C[C@H]3C2)N1C(=O)OCC(F)C1CCC1", "note": "(stereo partly drawn) [Example 54, 2-cyclobutyl-2-fluoroethyl (2R,3S,5R)-2-((((1S,3S,6R)-6-(5-fluoropyrimidin-2-yl)bicyclo[4.1.0]heptan-3-yl)oxy)methyl)-5-methyl-3-(methylsulfonamido)pyrrolidine-1-carboxylate]", "IC50": 6}]}]}
